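Assay format: 96-well plates, 48-hour exposure. The concentration for 50% growth inhibition is given as GI50. Definition used: TGI = concentration required for complete inhibition of growth.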

Test systems include TK-10 renal; SNB-19 CNS; CCRF-CEM leukemia; HCT-15 colon; K-562 leukemia; UACC-62 melanoma; NCI/ADR-RES ovarian; HCC-2998 colon; RPMI-8226 leukemia; COLO 205 colon.
Holding throughout (experiment): growth of human tumour cells (NCI), 48 h

Consider `N#C/C(=C\c1c(-c2ccccc2)[nH]c2ccccc12)S(=O)(=O)c1ccccc1`, for which the GI50 in the experiment with TK-10 renal is 5.08 µM; in the experiment with SNB-19 CNS it was 7.08 µM; with CCRF-CEM leukemia, 2.38 µM; in the experiment with HCT-15 colon, 1.07 µM; in the experiment with K-562 leukemia, 0.346 µM; in the experiment on UACC-62 melanoma, 2.38 µM. The GI50 with NCI/ADR-RES ovarian was 1.06 µM; with HCC-2998 colon it was 10.9 µM; in the experiment on RPMI-8226 leukemia it was 0.557 µM; in the experiment with COLO 205 colon, 1.38 µM. In addition, the TGI with TK-10 renal is over 54.3 µM; with SNB-19 CNS it was over 88.2 µM; with CCRF-CEM leukemia it was 18.4 µM; with HCT-15 colon, 34.6 µM; in the experiment with UACC-62 melanoma, 24.9 µM; with NCI/ADR-RES ovarian, 43.4 µM. The TGI was determined as 34.3 µM with HCC-2998 colon, 6.88 µM in the experiment with RPMI-8226 leukemia and 17 µM in the experiment on COLO 205 colon.
Consider `CN(C)c1ccc2c(c1)Sc1cc(N(C)C)ccc1N2C(=O)c1ccccc1`, for which the GI50 in the experiment on SNB-19 CNS was 34.2 µM; with CCRF-CEM leukemia, over 100 µM; in the experiment on HCT-15 colon it was 59.2 µM; in the experiment with K-562 leukemia, 2.69 µM; in the experiment with UACC-62 melanoma, 17.5 µM; with NCI/ADR-RES ovarian it was 33.7 µM. For the same compound, the values for the GI50 in the experiment with HCC-2998 colon, with RPMI-8226 leukemia and with COLO 205 colon were 73.2 µM, 76.1 µM and over 100 µM, respectively. For the same compound, the TGI in the experiment with SNB-19 CNS, in the experiment with CCRF-CEM leukemia, in the experiment with HCT-15 colon, in the experiment with K-562 leukemia, in the experiment with UACC-62 melanoma and with NCI/ADR-RES ovarian was over 100 µM each time. Also, the TGI with HCC-2998 colon, in the experiment with RPMI-8226 leukemia and in the experiment on COLO 205 colon was over 100 µM in each case.
With `O=c1[nH]c2ccccc2nc1-c1c[nH]c2ccccc12`, the GI50 with TK-10 renal, in the experiment with SNB-19 CNS, in the experiment with CCRF-CEM leukemia, with HCT-15 colon, with K-562 leukemia and in the experiment on NCI/ADR-RES ovarian was over 100 µM in each case. In addition, the GI50 in the experiment with HCC-2998 colon, in the experiment with RPMI-8226 leukemia and with COLO 205 colon was over 100 µM throughout. Also, the TGI with TK-10 renal, in the experiment with SNB-19 CNS, with CCRF-CEM leukemia, in the experiment with HCT-15 colon, in the experiment on K-562 leukemia and with NCI/ADR-RES ovarian was over 100 µM throughout. The TGI with HCC-2998 colon, in the experiment on RPMI-8226 leukemia and with COLO 205 colon was over 100 µM each time.
In the case of `Cc1cc2c3ccc(C)[n+](C)c3ccc2n1C`, the GI50 in the experiment on TK-10 renal was 13 µM; in the experiment with SNB-19 CNS it was 2 µM; with HCT-15 colon, over 100 µM; in the experiment on K-562 leukemia, 1.52 µM; in the experiment with UACC-62 melanoma, 8.97 µM; in the experiment with NCI/ADR-RES ovarian, over 100 µM. Moreover, the GI50 in the experiment with HCC-2998 colon is 2.6 µM; in the experiment with RPMI-8226 leukemia, 1.32 µM; with COLO 205 colon, 1.75 µM. Besides, the TGI with TK-10 renal was over 100 µM; with SNB-19 CNS it was 14 µM; in the experiment with HCT-15 colon, over 100 µM; in the experiment on K-562 leukemia, over 100 µM; in the experiment with UACC-62 melanoma it was 22.6 µM; in the experiment with NCI/ADR-RES ovarian it was over 100 µM. Besides, the values for the TGI in the experiment on HCC-2998 colon, in the experiment with RPMI-8226 leukemia and in the experiment on COLO 205 colon were 19.8 µM, 23.3 µM and 5.52 µM, respectively.
As for `COc1ccc(C2CC(c3cc(OC)c(OC)c(OC)c3)=NN2C(C)=O)cc1OCC(=O)Nc1nc2ccc(C(F)(F)F)cc2s1` (centres undefined), the GI50 was 2.85 µM in the experiment with TK-10 renal; 11 µM in the experiment on SNB-19 CNS; 9.26 µM in the experiment on HCT-15 colon; 3.77 µM with UACC-62 melanoma; 3.13 µM in the experiment with NCI/ADR-RES ovarian; over 100 µM in the experiment on HCC-2998 colon. For the same compound, the results for the GI50 in the experiment on RPMI-8226 leukemia and in the experiment on COLO 205 colon were 2.21 µM and 3.94 µM, respectively. For the same compound, the TGI was 7.77 µM in the experiment on TK-10 renal; 35.8 µM with SNB-19 CNS; over 100 µM in the experiment on HCT-15 colon; over 100 µM in the experiment on UACC-62 melanoma; over 100 µM in the experiment on NCI/ADR-RES ovarian; over 100 µM in the experiment on HCC-2998 colon. The TGI in the experiment on RPMI-8226 leukemia is 7.09 µM; with COLO 205 colon, over 100 µM.
As to `CN(C)CCCN1c2ccccc2CCc2ccc(Cl)cc21`, the GI50 with TK-10 renal was 13.3 µM; in the experiment with SNB-19 CNS it was 6.42 µM; in the experiment on CCRF-CEM leukemia it was 3.07 µM; in the experiment with HCT-15 colon it was 3.35 µM; with UACC-62 melanoma, 1.61 µM; with NCI/ADR-RES ovarian, 3.33 µM. Further, the GI50 in the experiment with HCC-2998 colon was 1.8 µM; in the experiment on RPMI-8226 leukemia, 2.62 µM; in the experiment with COLO 205 colon, 1.91 µM. The TGI in the experiment with TK-10 renal is 27.2 µM; with SNB-19 CNS, 21.5 µM; with CCRF-CEM leukemia, 12 µM; in the experiment with HCT-15 colon it was 12.1 µM; with UACC-62 melanoma it was 3.31 µM; in the experiment on NCI/ADR-RES ovarian, 14.8 µM. The figures for the TGI with HCC-2998 colon, with RPMI-8226 leukemia and in the experiment with COLO 205 colon were 3.75 µM, 8.26 µM and 3.53 µM, respectively.
On to `C=C1CC[C@@H]2[C@](C)(COC(C)=O)[C@@H](O)CC[C@@]2(C)[C@@H]1COc1ccc2ccc(=O)oc2c1`, for which the GI50 with TK-10 renal was over 100 µM; in the experiment with SNB-19 CNS, over 100 µM; in the experiment with CCRF-CEM leukemia, over 100 µM; in the experiment with HCT-15 colon, over 100 µM; with K-562 leukemia, 62.6 µM; with UACC-62 melanoma, over 100 µM. Further, the values for the GI50 in the experiment on NCI/ADR-RES ovarian, in the experiment on HCC-2998 colon and in the experiment with RPMI-8226 leukemia were over 100 µM, over 100 µM and 26.3 µM, respectively. Further, the TGI in the experiment on TK-10 renal, with SNB-19 CNS, in the experiment on CCRF-CEM leukemia, with HCT-15 colon, in the experiment on K-562 leukemia and with UACC-62 melanoma was over 100 µM each time. The TGI in the experiment on NCI/ADR-RES ovarian, in the experiment on HCC-2998 colon and in the experiment on RPMI-8226 leukemia was over 100 µM in each case.
Take `COc1ccc(C(OCC2OC(n3ccc(NC(=O)c4ccccc4)nc3=O)C(O)C2O)(c2ccccc2)c2ccccc2)cc1` (centres undefined): the TGI worked out at 9 µM in the experiment with SNB-19 CNS; 4.39 µM in the experiment on CCRF-CEM leukemia; 3.87 µM in the experiment with HCT-15 colon; 5.58 µM with K-562 leukemia; 21 µM in the experiment with UACC-62 melanoma; 4.89 µM in the experiment with NCI/ADR-RES ovarian. Also, the TGI in the experiment with HCC-2998 colon turned out to be 12.6 µM; with RPMI-8226 leukemia, 4.64 µM; in the experiment with COLO 205 colon it was 3.7 µM.
